Data taken from US20070179060A1, “6-(Poly-substituted aryl)-4-aminopicolinates and their use as herbicides” (priority 2006, published 2007).

How the values were obtained:
[1] = system: lambsquarter (Chenopodium album); test: Postemergence herbicidal activity; assay type: in vivo; settings: post-emergent, 140 g ai/ha, after 14 days; for pest or weed control at 140 g/ha: Chenopodium album, post-emergence, 336 h, read-out: % Control CHEAL
In short: (§1)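 Compounds were applied postemergence by track sprayer delivering 187 L/ha, using a mixed organic/aqueous carrier containing crop oil concentrate and surfactant; solvent-blank sprays served as controls. Test plants were at the first to second true leaf stage after 7-21 days' greenhouse growth, were sub-irrigated after treatment, and were evaluated by probit analysis.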

[2] = system: redroot pigweed (Amaranthus retroflexus); test: Postemergence herbicidal activity; assay type: in vivo; settings: post-emergent, 140 g ai/ha, after 14 days; for pest or weed control at 140 g/ha: Amaranthus retroflexus, post-emergence, 336 h, read-out: % Control AMARE
In short: as §1

[3] = system: velvetleaf (Abutilon theophrasti); test: Postemergence herbicidal activity; assay type: in vivo; settings: post-emergent, 140 g ai/ha, after 14 days; for pest or weed control at 140 g/ha: Abutilon theophrasti, post-emergence, 336 h, read-out: % Control ABUTH
In short: as §1

Galium aparine = test: Postemergence herbicidal activity in cereal crops; assay type: in vivo; settings: post-emergent, after 20-22 days
Description: (§2) When required to ensure good germination and healthy plants, a fungicide treatment and/or other chemical or physical treatment was applied. The plants were grown for 7-36 days in a greenhouse with an approximate 14 hour photoperiod which was maintained at about 18° C. during the day and 17° C. during the night. Nutrients and water were added on a regular basis and supplemental lighting was provided with overhead metal halide 1000-Watt lamps as necessary. The plants were employed for testing when they reached the second or third true leaf stage. […] The concentrated stock solutions obtained were diluted with 16 mL of an aqueous mixture containing acetone, water, isopropyl alcohol, DMSO, Agri-dex crop oil concentrate, and Triton® X-77 surfactant in a 64.7:26.0:6.7:2.0:0.7:0.01 v/v ratio to obtain spray solutions containing the highest application rates. […] Compound requirements are based upon a 12 mL application volume at a rate of 187 L/ha. Formulated compounds were applied to the plant material with an overhead Mandel track sprayer equipped with a […] nozzles calibrated to deliver 187 L/ha over an application area of 0.503 square meters at a spray height of 18 inches (43 cm) above average plant canopy height. Control plants were sprayed in the same manner with the blank. The treated plants and control plants were placed in a greenhouse as described above and watered by sub-irrigation to prevent wash-off of the test compounds.

Lamium purpureum = test: Postemergence herbicidal activity in cereal crops; assay type: in vivo; settings: post-emergent, after 20-22 days
Description: as §2

Papaver rhoeas = test: Postemergence herbicidal activity in cereal crops; assay type: in vivo; settings: post-emergent, after 20-22 days
Description: as §2

Veronica persica = test: Postemergence herbicidal activity in cereal crops; assay type: in vivo; settings: post-emergent, after 20-22 days
Description: as §2

barley (Hordeum vulare) = test: Postemergence herbicidal activity in cereal crops; assay type: in vivo; settings: crop, post-emergent, after 20-22 days
Description: as §2

[4] = system: wheat (Triticum aestivum); test: Postemergence herbicidal activity in cereal crops; assay type: in vivo; settings: crop, post-emergent, after 20-22 days
Description: as §2

[5] = system: lambsquarter (Chenopodium album); test: Preemergence herbicidal activity; assay type: in vivo; settings: Chenopodium album, pre-emergence, 480 h; pre-emergent, 140 g ai/ha, after 20-22 days; read-out: % Control CHEAL
Source text: (§3) Seeds of the desired test plant species were planted in a soil matrix prepared by mixing a loam soil (43 percent silt, 19 percent clay, and 38 percent sand, with a pH of about 8.1 and an organic matter content of about 1.5 percent) and sand in a 70 to 30 ratio. The soil matrix was contained in plastic pots with a surface area of 113 square centimeters. When required to ensure good germination and healthy plants, a fungicide treatment and/or other chemical or physical treatment was applied. […] Compound requirements are based upon a 12 mL application volume at a rate of 187 L/ha. Formulated compounds were applied to the plant material with an overhead Mandel track sprayer equipped with a […] nozzles calibrated to deliver 187 L/ha over an application area of 0.503 square meters at a spray height of 18 inches (43 cm) above the soil surface. Control plants were sprayed in the same manner with the solvent blank. The treated pots and control pots were placed in a greenhouse maintained with an approximate 15 hour photoperiod and temperatures of about 23-29° C. during the day and 22-28° C. during the night. Nutrients and water were added on a regular basis and supplemental lighting was provided with overhead metal halide 1000-watt lamps as necessary. The water was added by top-irrigation.

[6] = system: redroot pigweed (Amaranthus retroflexus); test: Preemergence herbicidal activity; assay type: in vivo; settings: Amaranthus retroflexus, pre-emergence, 480 h; pre-emergent, 140 g ai/ha, after 20-22 days; read-out: % Control AMARE
Source text: as §3

[7] = system: velvetleaf (Abutilon theophrasti); test: Preemergence herbicidal activity; assay type: in vivo; settings: Abutilon theophrasti, pre-emergence, 480 h; pre-emergent, 140 g ai/ha, after 20-22 days; read-out: % Control ABUTH
Source text: as §3

Row | Compound | pest or weed control at 140 g/ha [1] [%] | pest or weed control at 140 g/ha [2] [%] | pest or weed control at 140 g/ha [3] [%] | pest or weed control at 140 g/ha [5] [%] | pest or weed control at 140 g/ha [6] [%] | pest or weed control at 140 g/ha [7] [%] | melting point | also measured
1 | COC(=O)c1nc(-c2ccc(C)c(OC)c2F)cc(N)c1Cl [Compound 36, 4-amino-3-chloro-6-(2-fluoro-3-methoxy-4-methylphenyl) pyridine-2-carboxylic acid, methyl ester] |  |  |  |  |  |  |  | % Control CHEAL [1]: 100%; % Control AMARE [2]: 100%; % Control ABUTH [3]: 100%; % Control GALAP (Galium aparine; 70 g ai/ha): 95%; % Control LAMPU (Lamium purpureum; 70 g ai/ha): 99%; % Control PAPRH (Papaver rhoeas; 70 g ai/ha): 99%; % Control VERPE (Veronica persica; 70 g ai/ha): 50%; % Control HORVS (barley (Hordeum vulare); 70 g ai/ha): 0%; % Control TRZAS ([4]; 70 g ai/ha): 5%
2 | COC(=O)c1nc(-c2c(F)cc(C)c(OC)c2F)cc(N)c1Cl [Compound 51, 4-Amino-3-chloro-6-(2,6-difluoro-3-methoxy-4-methylphenyl)pyridine-2-carboxylic acid, methyl ester] | 100 | 100 | 100 |  |  |  |  | pest or weed control at 35 g/ha (Galium aparine; Galium aparine, post-emergence, 480 h, 35 g ai/ha, read-out: % Control GALAP): 95%; pest or weed control at 35 g/ha (Lamium purpureum; Lamium purpureum, post-emergence, 480 h, 35 g ai/ha, read-out: % Control LAMPU): 70%; pest or weed control at 35 g/ha (Papaver rhoeas; Papaver rhoeas, post-emergence, 480 h, 35 g ai/ha, read-out: % Control PAPRH): 100%; pest or weed control at 35 g/ha (Veronica persica; Veronica persica, post-emergence, 480 h, 35 g ai/ha, read-out: % Control VERPE): 30%; pest or weed control at 35 g/ha (barley (Hordeum vulare); Hordeum, post-emergence, 480 h, 35 g ai/ha, read-out: % Control HORVS): 0%; plant injury at 35 g/ha ([4]; Triticum aestivum, post-emergence, 480 h, 35 g ai/ha, read-out: % Control TRZAS): 0%
3 | CN(C)c1c(Cl)cc(F)c(-c2cc(N)c(Cl)c(C(=O)O)n2)c1F [Compound 94, 4-Amino-3-chloro-6-(4-chloro-2,6-difluoro-3-dimethylaminophenyl)pyridine-2-carboxylic acid] | 100 | 100 | 100 | 100 | 100 | 100 | 171 to 172 °C | 
4 | Cc1c(Cl)ccc(-c2cc(N)c(Cl)c(C(=O)O)n2)c1F [Compound 99, 4-Amino-3-chloro-6-(4-chloro-2-fluoro-3-methylphenyl)pyridine-2-carboxylic acid] | 90 | 90 | 80 | 95 | 100 | 100 | 179 to 181 °C (dec.) | 
5 | CCOc1c(Cl)ccc(-c2cc(N)c(Cl)c(C(=O)O)n2)c1F [Compound 102, 4-Amino-3-chloro-6-(4-chloro-2-fluoro-3-ethoxyphenyl)pyridine-2-carboxylic acid] | 95 | 85 | 80 | 0 | 95 | 85 | 177 to 178 °C (dec.) | 
6 | COCc1c(Cl)ccc(-c2cc(N)c(Cl)c(C(=O)O)n2)c1F [Compound 105, 4-Amino-3-chloro-6-(4-chloro-2-fluoro-3-methoxymethylphenyl)pyridine-2-carboxylic acid] | 85 | 98 | 95 | 95 | 100 | 100 | 187 to 188 °C (dec.) | 
7 | Nc1cc(-c2ccc3c(c2F)OCO3)nc(C(=O)O)c1Cl [Compound 108, 4-Amino-3-chloro-6-(2-fluoro-3,4-methylenedioxyphenyl)pyridine-2-carboxylic acid] | 95 | 100 | 100 | 90 | 100 | 90 | 202 to 203 °C (dec.) | 
8 | COc1c(Cl)ccc(-c2cc(N)c(Cl)c(C(=O)O)n2)c1Cl [Compound 110, 4-Amino-3-chloro-6-(2,4-dichloro-3-methoxyphenyl)pyridine-2-carboxylic acid] | 85 | 90 | 80 | 40 | 40 | 100 | 187 to 188 °C (dec.) | 
9 | Nc1c(F)c(-c2ccc3c(c2F)OCO3)nc(C(=O)O)c1Cl [Compound 115, 4-Amino-3-chloro-5-fluoro-6-(2-fluoro-3,4-methylenedioxyphenyl)pyridine-2-carboxylic acid] | 100 | 100 | 100 | 100 | 100 | 100 | 179 to 180 °C | 
10 | CCN(CC)c1c(Cl)ccc(-c2cc(N)c(Cl)c(C(=O)O)n2)c1F [Compound 116, 4-Amino-3-chloro-6-[4-chloro-3-(diethylamino)-2-fluorophenyl]pyridine-2-carboxylic acid] | 100 | 90 | 80 | 75 | 100 | 100 | 174 to 175 °C | 
11 | COc1c(Br)ccc(-c2cc(N)c(Cl)c(C(=O)O)n2)c1Cl [Compound 121, 4-Amino-6-(4-bromo-2-chloro-3-methoxyphenyl)-3-chloropyridine-2-carboxylic acid] | 90 | 95 | 100 | 100 | 100 | 100 | 192 to 193 °C | 
12 | COc1c(Cl)cc(F)c(-c2cc(N)c(Cl)c(C(=O)O)n2)c1F [Compound 133, 4-Amino-3-chloro-6-(4-chloro-2,6-difluoro-3-methoxyphenyl)pyridine-2-carboxylic acid] |  |  |  |  |  |  |  | pest or weed control at 17.5 g/ha (Galium aparine; Galium aparine, post-emergence, 480 h, 17.5 g ai/ha, read-out: % Control GALAP): 100%; pest or weed control at 17.5 g/ha (Lamium purpureum; Lamium purpureum, post-emergence, 480 h, 17.5 g ai/ha, read-out: % Control LAMPU): 99%; pest or weed control at 17.5 g/ha (Papaver rhoeas; Papaver rhoeas, post-emergence, 480 h, 17.5 g ai/ha, read-out: % Control PAPRH): 100%; pest or weed control at 17.5 g/ha (Veronica persica; Veronica persica, post-emergence, 480 h, 17.5 g ai/ha, read-out: % Control VERPE): 70%; pest or weed control at 17.5 g/ha (barley (Hordeum vulare); Hordeum, post-emergence, 480 h, 17.5 g ai/ha, read-out: % Control HORVS): 0%; plant injury at 17.5 g/ha ([4]; Triticum aestivum, post-emergence, 480 h, 17.5 g ai/ha, read-out: % Control TRZAS): 0%
